US12077503B2, “Substituted cyclic amides and their use as herbicides” (FMC CORPORATION, priority 2015, dated 2024)

Legend:
Type in all cases: in vivo
[1] = system: wheat (Triticum aestivum); test: Test A postemergence
Method in brief: (§1)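 Visual injury scores from 0, no effect, to 100, complete control, were assigned versus untreated controls roughly 10 d after treatment in the greenhouse. Test chemicals, formulated with surfactant in a non-phytotoxic solvent, were applied to planted seeds as a preemergence soil spray or postemergence to one- to two-leaf plants 2 to 10 cm tall, in loam–sand soil.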

[2] = system: Kochia (Kochia scoparia); test: Test A postemergence
Method in brief: as §1

[3] = system: corn (Zea mays); test: Test A postemergence
Method in brief: as §1

[4] = system: pigweed (Amaranthus retroflexus); test: Test A postemergence
Method in brief: as §1

[5] = system: ryegrass, Italian (Italian ryegrass, Lolium multiflorum); test: Test A postemergence
Method in brief: as §1

[6] = system: Galium (catchweed bedstraw, Galium aparine); test: Test A postemergence
Method in brief: as §1

[7] = system: ragweed (common ragweed, Ambrosia elatior); test: Test A postemergence
Method in brief: as §1

[8] = system: barnyardgrass (Echinochloa crus-galli); test: Test A postemergence
Method in brief: as §1

[9] = system: blackgrass (Alopecurus myosuroides); test: Test A postemergence
Method in brief: as §1

[10] = system: giant foxtail (Setaria faberii); test: Test A postemergence
Method in brief: as §1

[11] = system: blackgrass (Alopecurus myosuroides); test: Test C preemergence; conditions: for Plant response rating, Blackgrass: scale 0 to 100, 0 no effect, 100 complete control
Method in brief: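 Visual 0 (no effect) to 100 (complete control) ratings versus controls, taken 13–15 d after treatment in the greenhouse; dash means no result. Compounds in a surfactant-containing non-phytotoxic solvent blend were applied preemergence to seeds in loam-sand soil or postemergence to 1- to 4-leaf plants (2–18 cm) in peat-based medium.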

[12] = system: sedge, umbrella (small-flower umbrella sedge, Cyperus difformis); test: Test B flooded paddy test; conditions: Flood, 250 g ai/ha; 0 to 100 scale where 0 is no effect and 100 is complete control; 13 to 15 d
Method in brief: (§2)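 Response scored visually against untreated controls, 0 = no effect and 100 = complete control, 13–15 d after treatment in the greenhouse. Compounds added to paddy water held 3 cm above soil surface. Treatment given at 2-leaf stage.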

[13] = system: rice (Oryra sativa); test: Test B flooded paddy test; conditions: Flood, 250 g ai/ha; 0 to 100 scale where 0 is no effect and 100 is complete control; 13 to 15 d
Method in brief: as §2

[14] = system: ducksalad (Heteranthera limosa); test: Test B flooded paddy test; conditions: Flood, 250 g ai/ha; 0 to 100 scale where 0 is no effect and 100 is complete control; 13 to 15 d
Method in brief: as §2

[15] = system: barnyardgrass (Echinochloa crus-galli); test: Test B flooded paddy test; conditions: Flood, 250 g ai/ha; 0 to 100 scale where 0 is no effect and 100 is complete control; 13 to 15 d
Method in brief: as §2

[16] = system: Kochia (Kochia scoparia); test: Test A preemergence
Method in brief: as §1

[17] = system: pigweed (Amaranthus retroflexus); test: Test A preemergence
[18] = system: ryegrass, Italian (Italian ryegrass, Lolium multiflorum); test: Test A preemergence
Method in brief: as §1

[19] = system: ragweed (common ragweed, Ambrosia elatior); test: Test A preemergence
Method in brief: as §1

[20] = system: barnyardgrass (Echinochloa crus-galli); test: Test A preemergence
Method in brief: as §1

[21] = system: giant foxtail (Setaria faberii); test: Test A preemergence
Method in brief: as §1

[22] = 125 g ai/ha, postemergence, visual rating after approx. 10 d, 0 to 100 scale (0 no effect, 100 complete control)
[23] = Postemergence, 500 g ai/ha, 0 to 100 scale where 0 is no effect and 100 is complete control
[24] = 125 g ai/ha, Preemergence, visual injury after approximately 10 d, 0 to 100 scale where 0 is no effect and 100 is complete control
[25] = 500 g ai/ha, preemergence, 0 to 100 scale, 0 = no effect, 100 = complete control

`CN1CC(c2ccc(F)c(C(F)(F)F)c2)C(C(=O)Nc2cccc(F)c2F)C1=O` (stereo not shown) [Compound 613] was tested, and the “Plant response rating, Wheat” value [1, 22] was 40, the “Plant response rating, Wheat” value [1, 23] was 50 and the “Plant response rating, Kochia” value [2, 22] was 60. For the same molecule, the “Plant response rating, Kochia” value [2, 23] was 70, the “Plant response rating, Corn” value [3, 22] was 50 and the “Plant response rating, Corn” value [3, 23] was 80. For the same molecule, the “Plant response rating, Pigweed” value [4, 22] was 50, the “Plant response rating, Pigweed” value [4, 23] was 70 and the “Plant response rating, Ryegrass, Italian” value [5, 22] was 60. The “Plant response rating, Ryegrass, Italian” value [5, 23] was 60, the “Plant response rating, Galium” value [6, 22] was 60 and the “Plant response rating, Galium” value [6, 23] was 60. The “Plant response rating, Ragweed” value [7, 22] was 20, the “Plant response rating, Ragweed” value [7, 23] was 30 and the “Plant response rating, Barnyardgrass” value [8, 22] was 70. The “Plant response rating, Barnyardgrass” value [8, 23] was 90, the “Plant response rating, Blackgrass” value [9, 22] was 40 and the “Plant response rating, Blackgrass” value [9, 23] was 60. For the same molecule, the “Plant response rating, Foxtail, Giant” value [10, 22] was 90, the “Plant response rating, Foxtail, Giant” value [10, 23] was 90 and the “Plant response rating (scale of 0 to 100), Blackgrass” value ([11]; 31 g ai/ha, 0 is no effect, 100 is complete control) was 85. For the same molecule, the “Plant response rating, Blackgrass” value ([11]; 62 g ai/ha) was 85, the “Plant response rating, Blackgrass” value ([11]; 125 g ai/ha) was 95 and the “Plant response rating, Blackgrass” value ([11]; 250 g ai/ha) was 95. For the same molecule, the “Plant response rating, Sedge, Umbrella” value [12] was 75, the “Plant response rating, Rice” value [13] was 10 and the “Plant response rating, Ducksalad” value [14] was 98. The “Plant response rating, Barnyardgrass” value [15] was 80, the “Plant response rating, Kochia” value [16, 24] was 60 and the “Plant response rating, Kochia” value [16, 25] was 70. The “Plant response rating, Pigweed” value [17, 24] was 70, the “Plant response rating, Pigweed” value [17, 25] was 70 and the “Plant response rating, Ryegrass, Italian” value [18, 24] was 70. The “Plant response rating, Ryegrass, Italian” value [18, 25] was 80, the “Plant response rating, Ragweed” value [19, 24] was 60 and the “Plant response rating, Ragweed” value [19, 25] was 60. The “Plant response rating, Barnyardgrass” value [20, 24] was 90, the “Plant response rating, Barnyardgrass” value [20, 25] was 90 and the “Plant response rating, Foxtail, Giant” value [21, 24] was 90. For the same molecule, the “Plant response rating, Foxtail, Giant” value [21, 25] was 90.
